Active and inactive are the calls of the source. The rule behind the calls is not given here.
Columns and labels:
J774.A1 [1] = experiment: Antiinflammatory activity against mouse J774.A1 cells assessed as inhibition of LPS-induced IL-6 production pretreated with compound for 30 mins followed by LPS induction and measured after 24 hrs by ELISA analysis; type: functional; settings: for inhibition (INH): time 1470 min, 24.5 h; for inhibition: time 1470.0 min; as to INH: test concentration or dose not given here
J774.A1 [2] = experiment: Antiinflammatory activity against mouse J774.A1 cells assessed as inhibition of LPS-induced TNF-alpha production pretreated with compound for 30 mins followed by LPS induction and measured after 24 hrs by ELISA analysis; type: functional; settings: for inhibition (INH): time 1470 min, 24.5 h; for inhibition: time 1470.0 min; as to INH: test concentration or dose not given here
J774.A1 [3] = experiment: Antiinflammatory activity against mouse J774.A1 cells assessed as inhibition of LPS-induced IL-6 release preincubated with compound for 30 mins followed by LPS-induction and measured after 24 hrs by ELISA analysis; type: functional, cell-based
J774.A1 [4] = experiment: Antiinflammatory activity against LPS-induced mouse J774.A1 cells assessed as effect on IL-6 mRNA level preincubated with compound for 30 mins followed by LPS-induction and measured after 6 hrs by qPCR analysis; type: functional, cell-based; settings: time 390.0 min
J774.A1 [5] = experiment: Antiinflammatory activity against mouse J774.A1 cells assessed as inhibition of LPS-induced TNF-alpha release preincubated with compound for 30 mins followed by LPS-induction and measured after 24 hrs by ELISA analysis; type: functional, cell-based
J774.A1 [6] = experiment: Antiinflammatory activity against LPS-induced mouse J774.A1 cells assessed as downregulation of IL-6 mRNA level preincubated with compound for 30 mins followed by LPS-induction and measured after 6 hrs by qPCR analysis; type: functional, cell-based; settings: time 390.0 min
J774.A1 [7] = experiment: Antiinflammatory activity against LPS-induced mouse J774.A1 cells assessed as downregulation of TNF-alpha mRNA level preincubated with compound for 30 mins followed by LPS-induction and measured after 6 hrs by qPCR analysis; type: functional, cell-based; settings: time 390.0 min

Row | Structure (SMILES) | inhibition (INH) (J774.A1 [1]) | inhibition (INH) (J774.A1 [2]) | other results
1 | O=C(CN1CCN(Cc2cccc([N+](=O)[O-])c2)CC1)Nc1cccc2ccccc12 | 36.57% | 49.62% | 
2 | COc1ccc(NC(=O)CN2CCN(Cc3cnc(NC(C)=O)s3)CC2)cn1 | 47.13% | 53.08% | 
3 | O=C(CN1CCN(c2ccc([N+](=O)[O-])cc2)CC1)NCc1ccccn1 | 49.31% | 57.51% | 
4 | COc1ccc(CN2CCN(CC(=O)Nc3ccc(OC)nc3)CC2)cc1 | 19.35% | 38.65% | 
5 | O=S(=O)(CCN1CCN(c2ncccn2)CC1)Nc1ccc2ncccc2c1 | 23.7% | 5.34% | 
6 | COc1ccc(NS(=O)(=O)CCN2CCN(Cc3ccccc3)CC2)cn1 | 13.57% | 16.24% | 
7 | COc1ccc(CN2CCN(c3ccc(S(=O)(=O)NCc4ccccn4)cc3[N+](=O)[O-])CC2)cc1 | 53.8% | 18.06% | 
8 | O=[N+]([O-])c1ccc(N2CCN(CCS(=O)(=O)NCc3ccccn3)CC2)cc1 | 60.1% | 51.16% | 
9 | CC(=O)Nc1ncc(CN2CCN(CCS(=O)(=O)Nc3cccc4ccccc34)CC2)s1 | 43.92% | 25.56% | 
10 | CC(=O)Nc1ncc(CN2CCN(CC(=O)NCc3ccccn3)CC2)s1 | 19.68% | 36.32% | 
11 | COc1cc(-c2csc(NC(=O)CCN3CCN(Cc4cccc([N+](=O)[O-])c4)CC3)n2)ccc1O | 78.47% | 41.39% | 
12 | O=S(=O)(CCN1CCN(Cc2ccccc2)CC1)NCc1ccccn1 | 54.87% | 43.92% | 
13 | O=[N+]([O-])c1cc(S(=O)(=O)NCc2ccccn2)ccc1N1CCN(Cc2ccccc2)CC1 | 69.3% | 50.22% | IC50 (J774.A1 [3]): 4.94 µM; Activity (J774.A1 [4]): inactive; IC50 (J774.A1 [5]): 10.1 µM
14 | COc1ccc(NC(=O)CN2CCN(Cc3ccc([N+](=O)[O-])cc3)CC2)cn1 | 35.43% | 37.85% | 
15 | O=C(CN1CCN(Cc2ccccc2)CC1)Nc1cccc2ccccc12 | 37.08% | 40.65% | 
16 | COc1ccc(NS(=O)(=O)CCN2CCN(Cc3cccc([N+](=O)[O-])c3)CC2)cn1 | 30.6% | 34.88% | 
17 | COc1ccc(CN2CCN(CC(=O)Nc3cccc4ccccc34)CC2)cc1 |  |  | inhibition (J774.A1 [1]): inactive; inhibition (J774.A1 [2]): inactive
18 | COc1ccc(NC(=O)CN2CCN(c3ncccn3)CC2)cn1 | 33.21% | 47.96% | 
19 | O=S(=O)(CCN1CCN(Cc2ccccc2)CC1)Nc1cccc2ccccc12 | 36.45% | 38.58% | 
20 | COc1ccc(NC(=O)CN2CCN(c3ccc([N+](=O)[O-])cc3)CC2)cn1 | 26.57% | 35.31% | 

Row | Structure (SMILES) | inhibition (INH) (J774.A1 [1]) | inhibition (INH) (J774.A1 [2]) | other results
21 | O=C(CCN1CCN(c2ccc([N+](=O)[O-])cc2)CC1)NCc1ccccn1 | 19.64% | 20.88% | 
22 | O=C(CCN1CCN(Cc2ccccc2)CC1)Nc1cccc2ccccc12 | 50.93% | 55.28% | 
23 | O=[N+]([O-])c1cccc(CN2CCN(CCS(=O)(=O)Nc3cccc4ccccc34)CC2)c1 | 39.74% | 48.04% | 
24 | COc1ccc(NS(=O)(=O)CCN2CCN(Cc3ccc([N+](=O)[O-])cc3)CC2)cn1 | 42.48% | 38.83% | 
25 | O=C(CN1CCN(c2ncccn2)CC1)Nc1cccc2ccccc12 | 9.078% | 18.5% | 
26 | COc1ccc(NC(=O)CN2CCN(Cc3ccccc3)CC2)cn1 | 9.69% | 34.1% | 
27 | COc1ccc(NS(=O)(=O)CCN2CCN(c3ccc([N+](=O)[O-])cc3)CC2)cn1 | 54.03% | 47.01% | 
28 | COc1ccc(NC(=O)CN2CCN(Cc3cccc([N+](=O)[O-])c3)CC2)cn1 | 20.88% | 41.2% | 
29 | O=C(CCN1CCN(Cc2ccc([N+](=O)[O-])cc2)CC1)NCc1ccccn1 | 36.81% | 25.79% | 
30 | O=C(CN1CCN(Cc2ccccc2)CC1)NCc1ccccn1 | 23.3% | 40.91% | 
31 | COc1ccc(CN2CCN(CCS(=O)(=O)Nc3ccc4ncccc4c3)CC2)cc1 | 50.52% | 31.97% | 
32 | O=[N+]([O-])c1ccc(CN2CCN(CCS(=O)(=O)Nc3cccc4ccccc34)CC2)cc1 | 51.66% | 52.22% | 
33 | O=C(CN1CCN(Cc2ccc([N+](=O)[O-])cc2)CC1)Nc1cccc2ccccc12 | 51.42% | 44.12% | 
34 | O=[N+]([O-])c1cc(S(=O)(=O)NCc2ccccn2)ccc1N1CCN(c2ncccn2)CC1 | 20.86% | 18.24% | 
35 | O=S(=O)(CCN1CCN(Cc2ccccc2)CC1)Nc1ccc2ncccc2c1 | 43.09% | 9.54% | 
36 | CC(=O)Nc1ncc(CN2CCN(c3ccc(S(=O)(=O)NCc4ccccn4)cc3[N+](=O)[O-])CC2)s1 | 40.3% | 31.13% | 
37 | O=[N+]([O-])c1cccc(CN2CCN(CCS(=O)(=O)NCc3ccccn3)CC2)c1 | 41.05% | 38.96% | 
38 | O=C(CN1CCN(Cc2cccc([N+](=O)[O-])c2)CC1)NCc1ccccn1 | 21.88% | 39.82% | 
39 | O=C(CN1CCN(c2ccc([N+](=O)[O-])cc2)CC1)Nc1cccc2ccccc12 | 17.67% | 17.43% | 
40 | O=[N+]([O-])c1ccc(N2CCN(CCS(=O)(=O)Nc3cccc4ccccc34)CC2)cc1 | 54.08% | 48.59% | 

Row | Structure (SMILES) | inhibition (INH) (J774.A1 [1]) | inhibition (INH) (J774.A1 [2]) | other results
41 | O=[N+]([O-])c1ccc(CN2CCN(CCS(=O)(=O)Nc3ccc4ncccc4c3)CC2)cc1 | 58.07% | 24.49% | 
42 | O=[N+]([O-])c1cccc(CN2CCN(CCS(=O)(=O)Nc3ccc4ncccc4c3)CC2)c1 | 54.36% | 23.97% | 
43 | COc1ccc(CN2CCN(CCS(=O)(=O)Nc3cccc4ccccc34)CC2)cc1 | 46.54% | 38.07% | 
44 | O=[N+]([O-])c1cccc(CN2CCN(c3ccc(S(=O)(=O)NCc4ccccn4)cc3[N+](=O)[O-])CC2)c1 | 71.33% | 43.51% | IC50 (J774.A1 [3]): 1.38 µM; Activity (J774.A1 [4]): inactive; IC50 (J774.A1 [5]): 3.99 µM
45 | O=S(=O)(CCN1CCN(c2ncccn2)CC1)Nc1cccc2ccccc12 | 10.6% | 12.33% | 
46 | COc1ccc(NS(=O)(=O)CCN2CCN(c3ncccn3)CC2)cn1 | 42% | 37.77% | 
47 | O=[N+]([O-])c1ccc(CN2CCN(CCS(=O)(=O)NCc3ccccn3)CC2)cc1 | 49.16% | 41.37% | 
48 | O=C(CCN1CCN(c2ccc([N+](=O)[O-])cc2)CC1)Nc1cccc2ccccc12 |  |  | inhibition (J774.A1 [1]): inactive; inhibition (J774.A1 [2]): inactive
49 | O=C(CN1CCN(c2ncccn2)CC1)NCc1ccccn1 | 40.7% | 38.32% | 
50 | O=[N+]([O-])c1ccc(CN2CCN(c3ccc(S(=O)(=O)NCc4ccccn4)cc3[N+](=O)[O-])CC2)cc1 | 69.93% | 42.19% | Activity (J774.A1 [6]): Active; IC50 (J774.A1 [3]): 1.32 µM; Activity (J774.A1 [7]): Active; IC50 (J774.A1 [5]): 8.59 µM
51 | O=[N+]([O-])c1ccc(N2CCN(CCS(=O)(=O)Nc3ccc4ncccc4c3)CC2)cc1 | 63.27% | 41.31% | 
52 | O=C(CCN1CCN(Cc2ccccc2)CC1)NCc1ccccn1 | 31% | 40.52% | 
53 | O=C(CN1CCN(Cc2ccc([N+](=O)[O-])cc2)CC1)NCc1ccccn1 | 36.43% | 42.8% | 
54 | COc1ccc(CN2CCN(CC(=O)NCc3ccccn3)CC2)cc1 | 3.21% | 38.64% | 
55 | COc1ccc(CN2CCN(CCS(=O)(=O)Nc3ccc(OC)nc3)CC2)cc1 | 55.78% | 39.86% | 
56 | O=S(=O)(CCN1CCN(c2ncccn2)CC1)NCc1ccccn1 | 50.45% | 40.39% | 
57 | O=C(CN1CCN(c2ccc([N+](=O)[O-])cc2)CC1)Nc1ccccn1 | 54.4% | 41.4% | 
58 | COc1ccc(CN2CCN(CCS(=O)(=O)NCc3ccccn3)CC2)cc1 | 44.03% | 35.94% | 

Reference: ChEMBL document CHEMBL5625228, “Design, synthesis, and bioactivity evaluation of novel amide/sulfonamide derivatives as potential anti-inflammatory agents against acute lung injury and ulcerative colitis” (Eur J Med Chem, 2023)
